Measured values reported in US12490739B2, “Synergistically effective fungicide composition comprising choline phosphonate and at least one additional fungicide” (BELCHIM CROP PROTECTION NV, priority 2019, dated 2025).

How the values were obtained:
Assay type in all cases: in vivo
Podosphaera leucotricha = assay: Example 14 field trials, apple (Malus domestica var. Gold Rush, var. Morgenduft Dallago) infected with powdery mildew; details: 840 g a.c./ha
Sphaerotheca fuliginea = assay: Example 8 field trial, cucumber (Cucumis sativus) infected with powdery mildew, Spain; details: 7 DA-A3, BBCH 63, 500 g a.c./ha
Venturia inaequalis [1] = assay: Example 15 field trial, apple (Malus domestica var. Gala) infected with apple scab, France; details: PESINC, 200 leaves, 1200 g a.c./ha
Venturia inaequalis [2] = assay: Example 4 field trials, apple (Malus domestica var. Golden delicious) infected with scab; details: 250 g a.c./ha
Peronospora cumensis = assay: Example 2 field trial, cucumber (Cucumis sativus) infected with downy mildew, France; details: PESSEV, 150 g a.c./ha
Plasmopara viticola = assay: Example 1 field trial, Vitis vinifera var. Chardonnay infected with downy mildew, South Africa; details: 120 g a.c./ha

Question: Which results are given for `OCC1(O)OC[C@@H](O)[C@H](O)[C@@H]1O` (stereo partly drawn) [TAG, (3S,4S,5R)-2-(hydroxymethyl)oxane-2,3,4,5-tetrol]?
Answer: TAG f.e. (%) (Podosphaera leucotricha; PESINC, location 1 (France), 20 shoots, 7 DA-A5, BBCH 71): 26.7%; TAG f.e. (%) (Podosphaera leucotricha; PESINC, location 1 (France), 100 leaves, 5 DA-A8, BBCH 74): 18.8%; TAG f.e. (%) (Podosphaera leucotricha; PESINC, location 1 (France), 100 leaves, 6 DA-A6, BBCH 74): 14.5%; TAG f.e. (%) (Podosphaera leucotricha; PESINC, location 1 (France), 100 leaves, 15 DA-A8, BBCH 76): 8.7%; TAG f.e. (%) (Podosphaera leucotricha; PESINC, location 1, 20 shoots, 7 DA-A5, BBCH 71, second listing (r40)): 0.6%; TAG f.e. (%) (Podosphaera leucotricha; PESINC, location 1, 100 leaves, 5 DA-A8, BBCH 74, second listing (r52)): 2.4%; TAG f.e. (%) (Podosphaera leucotricha; PESINC, location 1, 100 leaves, 6 DA-A6, BBCH 74, second listing (r46)): 36.4%; TAG f.e. (%) (Podosphaera leucotricha; PESINC, location 1, 100 leaves, 15 DA-A8, BBCH 76, second listing (r58)): 5.9%; TAG f.e. (%) (Podosphaera leucotricha; PESSEV, location 1 (France), 100 leaves, 5 DA-A8, BBCH 74): 38.4%; TAG f.e. (%) (Podosphaera leucotricha; PESSEV, location 1 (France), 100 leaves, 6 DA-A6, BBCH 74): 15.6%; TAG f.e. (%) (Podosphaera leucotricha; PESSEV, location 1 (France), 100 leaves, 15 DA-A8, BBCH 76): 2.6%; TAG f.e. (%) (Podosphaera leucotricha; PESSEV, location 1, 100 leaves, 5 DA-A8, BBCH 74, second listing (r49)): 1.6%; TAG f.e. (%) (Podosphaera leucotricha; PESSEV, location 1, 100 leaves, 6 DA-A6, BBCH 74, second listing (r43)): 44.9%; TAG f.e. (%) (Podosphaera leucotricha; PESSEV, location 1, 100 leaves, 15 DA-A8, BBCH 76, second listing (r55)): 3.5%; TAG f.e. (%) (Sphaerotheca fuliginea; PESINC): 83.9%; TAG f.e. (%) (Sphaerotheca fuliginea; PESSEV): 93.2%; TAG f.e. (%) (Venturia inaequalis [1]; 28 DA-A12, BBCH 73): 28.1%; TAG f.e. (%) (Venturia inaequalis [1]; 56 DA-A12, BBCH 75): 28.0%

Question: Which “DIT f.e. (%)” value (Venturia inaequalis [2]; PESINC, location 1 (France), 1 DA-A6, BBCH 74) does the source give for `N#Cc1sc2c(=O)c3ccccc3c(=O)c=2sc1C#N` [DIT, 5,10-dioxobenzo[g][1,4]benzodithiine-2,3-dicarbonitrile] here?
Answer: 19.8%

Question: What about the “DIT f.e. (%)” value (Venturia inaequalis [2]; PESINC, location 1 (France), 6 DA-A4, BBCH 72) of the same compound?
Answer: 38.6%

Question: And the “DIT f.e. (%)” value (Venturia inaequalis [2]; PESINC, location 2 (United Kingdom), 5 DA-A8, BBCH 74)?
Answer: 59.0%

Question: And the “DIT f.e. (%)” value (Venturia inaequalis [2]; PESINC, location 3 (Belgium), 31 DA-A9, BBCH 73)?
Answer: 51.8%

Question: What about the “DIT f.e. (%)” value (Venturia inaequalis [2]; PESINC, location 3 (Belgium), 80 DA-A9, BBCH 73) of the same compound?
Answer: 42.6%

Question: What about the “DIT f.e. (%)” value (Venturia inaequalis [2]; PESSEV, location 1 (France), 1 DA-A6, BBCH 74) of the same compound?
Answer: 63.0%

Question: And the “DIT f.e. (%)” value (Venturia inaequalis [2]; PESSEV, location 1 (France), 6 DA-A4, BBCH 72)?
Answer: 75.4%

Question: Which “VAL f.e. (%)” value (Peronospora cumensis; 6 DA-A2, BBCH 19) does the source give for `COC(=O)CC(NC(=O)[C@@H](NC(=O)OC(C)C)C(C)C)c1ccc(Cl)cc1` (stereo partly drawn) [VAL, methyl 3-(4-chlorophenyl)-3-[[(2S)-3-methyl-2-(propan-2-yloxycarbonylamino)butanoyl]amino]propanoate] here?
Answer: 31.7%

Question: And the “VAL f.e. (%)” value (Peronospora cumensis; 7 DA-A1, BBCH 16)?
Answer: 43.6%

Question: What about the “VAL f.e. (%)” value (Peronospora cumensis; 7 DA-A4, BBCH 19) of the same compound?
Answer: 62.1%

Question: And the “VAL f.e. (%)” value (Peronospora cumensis; 8 DA-A3, BBCH 19)?
Answer: 31.7%

Question: What about the “VAL f.e. (%)” value (Peronospora cumensis; 14 DA-A4, BBCH 19) of the same compound?
Answer: 27.0%

Question: What about the “VAL f.e. (%)” value (Plasmopara viticola; PESINC, 50 bunches, 14 DA-A3, BBCH 77) of the same compound?
Answer: 64.0%

Question: What about the “VAL f.e. (%)” value (Plasmopara viticola; PESINC, 50 bunches, 14 DA-A5, BBCH 83) of the same compound?
Answer: 53.6%

Question: And the “VAL f.e. (%)” value (Plasmopara viticola; PESINC, 100 leaves, 14 DA-A3, BBCH 77)?
Answer: 57.6%

Question: And the “VAL f.e. (%)” value (Plasmopara viticola; PESSEV, 50 bunches, 14 DA-A3, BBCH 77)?
Answer: 75.9%

Question: And the “VAL f.e. (%)” value (Plasmopara viticola; PESSEV, 50 bunches, 14 DA-A5, BBCH 83)?
Answer: 73.3%

Question: And the “VAL f.e. (%)” value (Plasmopara viticola; PESSEV, 100 leaves, 14 DA-A3, BBCH 77)?
Answer: 66.9%
